Paper PMC9026148, “Pre-Clinical Study Evaluating Novel Protein Phosphatase 2A Activators as Therapeutics for Neuroblastoma” (Cancers, 2022)

Columns and labels:
SET = assay: Immunoblotting of SET in neuroblastoma cells; assay type: cell-based, human; conditions: increasing concentrations, 24 h; four cell lines and two PDXs
Description: (§1) Following treatment, cells were lysed on ice using radioimmunoprecipitation (RIPA) buffer with phosphatase inhibitors (P5726, Sigma Aldrich), protease inhibitors (P8340, Sigma Aldrich), and phenylmethanesulfonylfluoride (PMSF, P7626, Sigma Aldrich) for 60 min. Cell lysates were centrifuged at 17,000 rpm for 30 min at 4 °C. Pierce™ BCA Protein Assay (Thermo Fisher Scientific, Inc.) determined protein concentration and proteins were separated by electrophoresis on sodium dodecyl sulfate polyacrylamide (SDS-PAGE) gels. Expected size of the targeted proteins was confirmed using molecular weight markers (Precision Plus Protein Kaleidoscope, Bio-Rad, Hercules, CA, USA). […] Immunoblots were developed with Luminata Classico or Crescendo Western horseradish peroxidase substrate (EMD Millipore, Burlington, MA, USA). Either anti-vinculin or anti-β-actin (as available from manufacturer) served as an internal loading control. We performed densitometry of Western blots using ImageJ software (Ver 1.49, http://imagej.nih.gov/ij (accessed on 9 February 2022).

SK-N-BE(2) cells = assay: alamarBlue viability, SK-N-BE(2); assay type: cell-based, human; conditions: 24 h
Description: CellTiter 96® Aqueous One Solution Cell Proliferation assay (Promega, Madison, WI, USA) was used to examine proliferation, and alamarBlue® assay (Thermo Fisher Scientific, Inc.) was used to evaluate viability. Cells, concentrations ranging from 5 × 10^3 to 1.5 × 10^4, depending on cell type due to wide variation in growth characteristics between established cell lines and PDX cells, were plated in 96-well plates and treated with increasing doses of 792 or 1154 for 24 h. CellTiter 96® or alamarBlue® dye (10 µL) was added for proliferation and viability assays, respectively. A microplate reader (Epoch Microplate Spectrophotometer, BioTek Instruments, Winooski, VT) measured absorbance at 490 nm for CellTiter 96® and at 570 nm for alamarBlue®, using 600 nm as a reference. […] Experiments were completed with at least three biologic replicates, and data reported as fold change ± SEM. […]
Supplemental Table S1: Neuroblastoma cells had the highest sensitivity to 792 and 1154.
(A) SK-N-AS and (B) SK-N-BE(2) cells (1.5 x 104) were plated in 96-well plates and treated with increasing doses of nine PP2A activating compounds for 24 hours. Compounds 792 and 1154 had the lowest LD50s of the nine compounds investigated in both cell lines.
Supplemental Figure S4: SK-N-AS cells were treated with FTY720 (0, 5 μM), 792 (10 μM), or 1154 (10 μM) for 24 hours and PP2A activity was measured. […]

[1] = system: SK-N-AS, SK-N-BE(2), SH-EP, WAC2, COA6, COA129 cells; assay: CellTiter 96 proliferation, long-term cell lines and PDX cells; assay type: cell-based, human; conditions: increasing doses, 24 h
Description: (§2) CellTiter 96® Aqueous One Solution Cell Proliferation assay (Promega, Madison, WI, USA) was used to examine proliferation, and alamarBlue® assay (Thermo Fisher Scientific, Inc.) was used to evaluate viability. Cells, concentrations ranging from 5 × 10^3 to 1.5 × 10^4, depending on cell type due to wide variation in growth characteristics between established cell lines and PDX cells, were plated in 96-well plates and treated with increasing doses of 792 or 1154 for 24 h. CellTiter 96® or alamarBlue® dye (10 µL) was added for proliferation and viability assays, respectively. A microplate reader (Epoch Microplate Spectrophotometer, BioTek Instruments, Winooski, VT) measured absorbance at 490 nm for CellTiter 96® and at 570 nm for alamarBlue®, using 600 nm as a reference. […] Experiments were completed with at least three biologic replicates, and data reported as fold change ± SEM.

CIP2A = assay: Immunoblotting of CIP2A in neuroblastoma cells; assay type: cell-based, human; conditions: increasing concentrations, 24 h; all cell lines except WAC2 and COA129 treated with 792
Description: as §1

[2] = Microsome (oxidative metabolism) stability, mouse; assay type: in vitro ADME; conditions: for half-life at 1 µM: liver microsomes 0.5 mg/mL, NADPH, read-out: T1/2 Mouse; for microsomal CLint at 1 µM: liver microsomes, read-out: CL Mouse
Description: (§3) Microsome stability assays were performed by Bioduro, LLC. Briefly, 2.5 µL (100 µM in DMSO) of test compounds are added to 197.5 µL of human, rat, or mouse microsome preparation (0.633 mg/mL in phosphate buffer) and mixed gently at 37 °C. The reaction is started by adding 50 µL NADPH (5 mM in phosphate buffer) and mixing at 37 °C. The final reaction microsome concentration is 0.5 mg/mL. The reaction is sampled at 0, 5, 15, 30, and 60 min. Reaction aliquots are quenched by adding to 1:1 methanol–acetonitrile containing analytical standards and analyzed by liquid chromatography with tandem mass spectrometry (LC-MS/MS).

SK-N-AS cells = assay: CellTiter 96 proliferation, SK-N-AS; assay type: cell-based; conditions: Homo sapiens, 24 h
Description: as §2
Supplemental Figure S3: Novel PP2A activating compounds decrease d neuroblastoma proliferation and viability. SK-N-AS and SK-N-BE(2) cells (1.5 x 104) were plated in 96-well plates and treated with increasing doses of nine PP2A activating compounds for 24 […]
novel PP2A activators tested in (A) SK-N-AS and (B) SK-N-BE(2) cells. Similarly, PP2A […]
(D) SK-N-BE(2) cells. Data reported as mean fold change ± SEM, and experiments were repeated with at least three biologic replicates. […]

[3] = Microsome (oxidative metabolism) stability, rat; assay type: in vitro ADME; conditions: for half-life at 1 µM: liver microsomes 0.5 mg/mL, NADPH, read-out: T1/2 Rat; for microsomal CLint at 1 µM: liver microsomes, read-out: CL Rat
Description: as §3

[4] = Microsome (oxidative metabolism) stability, human; assay type: in vitro ADME; conditions: for half-life at 1 µM: liver microsomes 0.5 mg/mL, NADPH, read-out: T1/2 Human; for microsomal CLint at 1 µM: liver microsomes, read-out: CL Human
Description: as §3

PP2A = target: T1, PP2A (Homo sapiens, UniProt P30153+P67775); assay: PP2A immunoprecipitation phosphatase assay in SH-EP cells; assay type: cell-based; conditions: 24 h, 10 μM in text (15 μM in Figure 2 legend), control 100 ± 0%
T1 construct: host or cells: SH-EP
T1 sequence (P67775 whole entry): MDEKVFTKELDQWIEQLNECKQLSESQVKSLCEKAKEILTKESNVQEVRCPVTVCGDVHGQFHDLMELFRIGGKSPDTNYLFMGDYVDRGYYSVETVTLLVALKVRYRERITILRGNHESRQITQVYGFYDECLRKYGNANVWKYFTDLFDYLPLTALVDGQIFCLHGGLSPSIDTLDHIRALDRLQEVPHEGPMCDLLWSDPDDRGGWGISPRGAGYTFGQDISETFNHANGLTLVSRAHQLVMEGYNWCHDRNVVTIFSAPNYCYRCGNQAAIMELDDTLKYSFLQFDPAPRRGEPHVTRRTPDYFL
T1 sequence (P30153 2-589 limits assumed): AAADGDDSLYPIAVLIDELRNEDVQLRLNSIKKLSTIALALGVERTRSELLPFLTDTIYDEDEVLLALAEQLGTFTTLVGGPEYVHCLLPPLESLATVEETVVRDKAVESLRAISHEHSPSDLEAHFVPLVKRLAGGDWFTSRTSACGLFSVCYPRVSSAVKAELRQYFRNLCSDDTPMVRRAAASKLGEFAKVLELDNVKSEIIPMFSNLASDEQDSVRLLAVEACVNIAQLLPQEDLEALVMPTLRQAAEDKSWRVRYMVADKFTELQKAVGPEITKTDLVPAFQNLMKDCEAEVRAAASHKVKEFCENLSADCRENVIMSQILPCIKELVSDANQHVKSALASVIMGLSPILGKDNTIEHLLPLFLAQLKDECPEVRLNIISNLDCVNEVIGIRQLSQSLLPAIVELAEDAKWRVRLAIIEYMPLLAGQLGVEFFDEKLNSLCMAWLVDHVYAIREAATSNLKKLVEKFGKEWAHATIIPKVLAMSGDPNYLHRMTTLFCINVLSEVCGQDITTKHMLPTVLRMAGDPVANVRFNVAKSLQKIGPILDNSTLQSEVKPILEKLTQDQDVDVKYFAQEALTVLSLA

O=S(=O)(N[C@H]1COC[C@@H](n2c3ccc(Cl)cc3c3cc(Cl)ccc32)[C@@H]1O)c1ccc(OC(F)(F)F)cc1 [ATUX-792]
SET expression (SET): unchanged
LD50 (SK-N-BE(2) cells): 17.2 µM
proliferation [1]: significantly decreased proliferation
expression of CIP2A (CIP2A): decreased
half-life at 1 µM [2]: > 256 min
microsomal CLint at 1 µM [2]: < 5 µL/min/mg
IC50 (SK-N-AS cells): 23.9 µM
half-life at 1 µM [3]: > 256 min
microsomal CLint at 1 µM [3]: < 5 µL/min/mg
half-life at 1 µM [4]: > 256 min
microsomal CLint at 1 µM [4]: < 5 µL/min/mg
PP2A activation (percent PP2A activity) (PP2A): 117.3 ± 7.2%

O=S(=O)(NC1CCCC(N2c3ccccc3CCc3ccccc32)C1O)c1ccc(OC(F)(F)F)cc1 (stereo not drawn) [DBK-1154]
SET expression (SET): unchanged
LD50 (SK-N-BE(2) cells): 16.6 µM
proliferation [1]: significantly decreased proliferation
expression of CIP2A (CIP2A): decreased
half-life at 1 µM [2]: 6 min
microsomal CLint at 1 µM [2]: 234 µL/min/mg
IC50 (SK-N-AS cells): 22.4 µM
half-life at 1 µM [3]: 3 min
microsomal CLint at 1 µM [3]: 521 µL/min/mg
half-life at 1 µM [4]: 10 min
microsomal CLint at 1 µM [4]: 134 µL/min/mg
PP2A activation (percent PP2A activity) (PP2A): 138.0 ± 16.5%
